Reference: patent US20220107328A1, “METHODS OF TREATING LIVER DISEASES” (Camp4 Therapeutics Corporation, priority 2018, published 2022)

What was measured:
PNPLA3 mRNA [1] = test: qRT-PCR of PNPLA3 mRNA in compound-treated primary human hepatocytes; settings: for Relative PNPLA3 mRNA expression: primary human hepatocytes, Table 35; for mrna remaining at 1 µM / mrna remaining at 10 µM: Homo sapiens, Hepatocyte
Protocol: (§1) Cryopreserved hepatocytes were cultured in plating media for 16 hours, transferred to maintenance media for 4 hours. Cultured on serum-free media for 2 hours, then a compound was added. The hepatocytes were maintained on the serum-free media for 16 hours prior to gene expression analysis.
(§2) Human hepatocytes cultured as described above were plated in 24-well format, adding 375,000 cells per well in a volume of 500 μl plating medium. Four hours before treatment, cells were washed with PBS and the medium was changed to either: fresh maintenance medium (complete) or modified maintenance medium.
(§3) Compound stocks were prepared at 1000× final concentration and added in a 2-step dilution to the medium to reduce risk of a compound precipitating out of solution when added to the cells, and to ensure reasonable pipetting volumes. One at a time, each compound was first diluted 10-fold in warm (about 37° C.) modified maintenance medium (initial dilution=ID), mixed by vortexing, and the ID was diluted 100-fold into the cell culture (e.g. 5.1 μl into 1 well of a 24-well plate containing 0.5 mL medium). The plate was mixed by carefully swirling and after all wells were treated and returned to the incubator overnight. If desired, separate plates/wells were treated with vehicle-only controls and/or positive controls. If using multi-well plates, controls were included on each plate. After about 18 hours, cells were harvested for further analysis, e.g., ChIP-seq, RNA-seq, ATAC-seq, etc.
(§4) Analysis of the fold changes in expression as measured by qRT-PCR were performed using the technique below. The control was DMSO, and the treatment was the selected compound (CPD). The internal control was GAPDH or B-Actin (or otherwise indicated), and the gene of interest is the target. First, the averages of the 4 conditions were calculated for normalization: DMSO:GAPDH, DMSO:Target, CPD: GAPDH, and CPD:Target. Next, the ΔCT of both control and treatment were calculated to normalize to internal control (GAPDH) using (DMSO:Target)−(DMSO:GAPDH)=ΔCT control and (CPD:Target)−(CPD: GAPDH)=ΔCT experimental. Then, the ΔΔCT was calculated by ΔCT experimental−ΔCT control. The Expression Fold Change (or Relative Quantification, abbreviated as RQ) was calculated by 2−(ΔΔCT) (2-fold expression change was shown by RNA-Seq results provided herein).
The aim of the validation studies was to test the identified compounds from key pathways, and expand the compound franchise to identify other potential hits. Candidate compounds were subjected to validation with qRT-PCR in human hepatocytes. qRT-PCR was performed on samples of primary human hepatocytes from a second donor treated with the candidate compounds. Compounds were tested at concentrations ranging from 0.01 μM to 50 μM, with the majority tested at 10 μM.
Primary human hepatocytes and stellate cells were also incubated with inhibitors of the TGFβ pathway and PNPLA3 gene expression changes assessed via qRT-PCR as previously described. In addition, primary hepatocytes and stellate cells were treated with TGFβ-ligand alone or with selected the small molecule inhibitors for 18 hours and subsequently harvested. for gene expression assays.
The other set was harvest for mRNA processing as previously described.

PNPLA3 mRNA [2] = test: qRT-PCR of PNPLA3 mRNA in compound-treated mouse hepatocytes; format: cell-based
Protocol: as §4
Compounds were tested at concentrations ranging from 0.01 μM to 50 μM. […] PNPLA3 levels were normalized to the level of a house keeping gene ACTB.

PNPLA3 mRNA [3] = test: qRT-PCR of PNPLA3 mRNA in human primary hepatic stellate cells; format: cell-based; settings: for Relative PNPLA3 mRNA levels RQ: hepatic stellate cells; for Relative PNPLA3 mRNA expression: stellate cells, Table 37
COL1A1 mRNA = test: qRT-PCR of COL1A1 mRNA in human primary hepatic stellate cells; format: cell-based; settings: hepatic stellate cells
PNPLA3 expression = test: RNA-seq of compound-treated primary human hepatocytes; format: cell-based; settings: PNPLA3 expression, RNA-seq
Protocol: as §1, §2, §3
The expression level of each gene was quantified with normalized FPKM (fragments per kilobase of exon per million mapped fragments). The differentially expressed genes were called using Cuffdiff v2.2.1 with q value<0.01 and log2 fold change>=1 or <=−1.
To identify small molecules that modulate PNPLA3, primary human hepatocytes were prepared as a monoculture, and at least one small molecule compound was applied to the cells.
RNA-seq was performed to determine the effects of the compounds on PNPLA3 expression in hepatocytes. Fold change was calculated by dividing the level of expression in the cell system that had been perturbed by the level of expression in an unperturbed system. Changes in expression having a p-value≤0.05 were considered significant.

SMILES: CN(c1ncccc1CNc1nc(Nc2ccc3c(c2)CC(=O)N3)ncc1C(F)(F)F)S(C)(=O)=O [PF-00562271]
- PNPLA3 mRNA remaining after treatment compared to untreated cells (PNPLA3 mRNA [1]; H Hep Donor-2, 10 uM): 0.34
- PNPLA3 mRNA remaining after treatment compared to untreated cells (PNPLA3 mRNA [1]; H Hep Donor-3, 10 uM): 0.2
- PNPLA3 mRNA remaining after treatment compared to untreated cells (PNPLA3 mRNA [1]; H Hep Donor-4, 10 uM): 0.5
- PNPLA3 mRNA remaining after treatment compared to untreated cells (PNPLA3 mRNA [1]; H Hep Donor-5, 1 uM): 1
- PNPLA3 mRNA remaining after treatment compared to untreated cells (PNPLA3 mRNA [1]; H Hep Donor-5, 10 uM): 0.25
- PNPLA3 mRNA remaining after treatment compared to untreated cells (PNPLA3 mRNA [2]; Mouse hepatocytes, 10 uM): 0.27
- PNPLA3 mRNA remaining after treatment compared to untreated cells (PNPLA3 mRNA [3]; Human Stellate, 1 uM): 1
- PNPLA3 mRNA remaining after treatment compared to untreated cells (PNPLA3 mRNA [3]; Human Stellate, 10 uM): 0.18

SMILES: CC(C)n1nc(-c2cc3cc(O)ccc3[nH]2)c2c(N)ncnc21 [PP242, Torkinib]
- Relative COL1A1 mRNA levels RQ (COL1A1 mRNA; 0.01 μM): 1.09
- Relative COL1A1 mRNA levels RQ (COL1A1 mRNA; 0.1 μM): 1.02
- Relative COL1A1 mRNA levels RQ (COL1A1 mRNA; 1 μM): 0.40
- Relative COL1A1 mRNA levels RQ (COL1A1 mRNA; 10 μM): 0.18
- Relative PNPLA3 mRNA levels (PNPLA3 mRNA [1]): 0.50 ± 0.02
- Relative PNPLA3 mRNA levels (PNPLA3 mRNA [2]; mouse hepatocytes, 1 μM, normalized to ACTB): 0.44 ± 0.10
- Relative PNPLA3 mRNA levels RQ (PNPLA3 mRNA [3]; 0.01 μM): 1.07
- Relative PNPLA3 mRNA levels RQ (PNPLA3 mRNA [3]; 0.1 μM): 0.74
- Relative PNPLA3 mRNA levels RQ (PNPLA3 mRNA [3]; 1 μM): 0.39
- Relative PNPLA3 mRNA levels RQ (PNPLA3 mRNA [3]; 10 μM): 0.63

SMILES: NS(=O)(=O)C#Cc1ccccc1 [Pifithrin-μ, 2-Phenylethynesulfonamide]
- Fold change (Log 2) vs untreated (PNPLA3 expression): −0.68

SMILES: COc1cc(Nc2ncc(F)c(Nc3ccc4c(n3)N(COP(=O)([O-])[O-])C(=O)C(C)(C)O4)n2)cc(OC)c1OC.[Na+].[Na+] [R788, fostamatinib disodium hexahydrate]
- Fold change (Log 2) vs untreated (PNPLA3 expression): −1.38
- Relative PNPLA3 mRNA levels (PNPLA3 mRNA [1]; Syk pathway inhibitors, 10 μM, human hepatocytes, normalized to B2M, mean of three replicates ± standard deviation): 0.77 ± 0.02

SMILES: COc1cc2c(cc1OC)CN(C(=O)/C=C/c1c(-c3ccccc3)n(C)c3ncccc13)CC2 [SIS3]
- PNPLA3 mRNA remaining after treatment compared to untreated cells (PNPLA3 mRNA [1]; H Hep Donor-1, 10 uM): 0.2
- PNPLA3 mRNA remaining after treatment compared to untreated cells (PNPLA3 mRNA [1]; H Hep Donor-2, 10 uM): 0.55
- Relative PNPLA3 mRNA expression (PNPLA3 mRNA [1]; 3.3 uM): 1.358 ± 0.3303
- Relative PNPLA3 mRNA expression (PNPLA3 mRNA [1]; 10 uM): 1.011 ± 0.2574
- PNPLA3 mRNA remaining after treatment compared to untreated cells (PNPLA3 mRNA [2]; Mouse hepatocytes, 10 uM): 0.50
- Relative PNPLA3 mRNA expression (PNPLA3 mRNA [3]; 0.01 uM): 1.49 ± 0.09
- Relative PNPLA3 mRNA expression (PNPLA3 mRNA [3]; 0.1 uM): 1.38 ± 0.19
- Relative PNPLA3 mRNA expression (PNPLA3 mRNA [3]; 1 uM): 0.77 ± 0.03
- Relative PNPLA3 mRNA expression (PNPLA3 mRNA [3]; 10 uM): 7.95 ± 2.29

SMILES: CC(C)c1cc(CNc2nc(Nc3cc(C4CC4)[nH]n3)cc(N3CCN(C)CC3)n2)on1 [XL228]
- mrna remaining at 1 µM (PNPLA3 mRNA [1]; read-out: PNPLA3 mRNA remaining after treatment compared to untreated cells, H Hep Donor-1, 1 uM (stated in cell)): 40%
- mrna remaining at 10 µM (PNPLA3 mRNA [1]; read-out: PNPLA3 mRNA remaining after treatment compared to untreated cells, H Hep Donor-3, 10 uM): 30%
- mrna remaining at 1 µM (PNPLA3 mRNA [1]; read-out: PNPLA3 mRNA remaining after treatment compared to untreated cells, H Hep Donor-4, 1 uM): 55%
- mrna remaining at 10 µM (PNPLA3 mRNA [1]; read-out: PNPLA3 mRNA remaining after treatment compared to untreated cells, H Hep Donor-4, 10 uM): 55%
- mrna remaining at 1 µM (PNPLA3 mRNA [1]; read-out: PNPLA3 mRNA remaining after treatment compared to untreated cells, H Hep Donor-5, 1 uM): 55%
- mrna remaining at 10 µM (PNPLA3 mRNA [1]; read-out: PNPLA3 mRNA remaining after treatment compared to untreated cells, H Hep Donor-5, 10 uM): 25%
- mrna remaining at 1 µM (PNPLA3 mRNA [2]; Hepatocyte, Mouse hepatocytes, 1 uM, read-out: PNPLA3 mRNA remaining after treatment compared to untreated cells): 40%
- mrna remaining at 10 µM (PNPLA3 mRNA [2]; Hepatocyte, Mouse hepatocytes, 10 uM, read-out: PNPLA3 mRNA remaining after treatment compared to untreated cells): 12%
- mrna remaining at 1 µM (PNPLA3 mRNA [3]; Human Stellate, 1 uM, read-out: PNPLA3 mRNA remaining after treatment compared to untreated cells): 80%
- mrna remaining at 10 µM (PNPLA3 mRNA [3]; Human Stellate, 10 uM, read-out: PNPLA3 mRNA remaining after treatment compared to untreated cells): 70%

SMILES: CN1C(=O)c2sccc2N(C)c2nc(Nc3ccc(S(N)(=O)=O)cc3)ncc21 [XMU-MP-1]
- Fold change (Log 2) vs untreated (PNPLA3 expression): −0.66
